Reference: patent publication US20230365592A1 (Agios Pharmaceuticals, Inc., priority 2022, published 2023)

What follows are compounds tested against T1, human PAH with the R408W mutation (Homo sapiens, UniProt P00439, R408W) (assay: Cell Based Phenylalanine Flux Assay). Conditions: A375 cells expressing human R408W PAH; 24 hrs compound incubation; 13C-Tyrosine by LC-MS; average where tested multiple times; read-out: AC50.
T1 construct: expressed in transfected cells
T1 sequence (P00439 1-452 R408W): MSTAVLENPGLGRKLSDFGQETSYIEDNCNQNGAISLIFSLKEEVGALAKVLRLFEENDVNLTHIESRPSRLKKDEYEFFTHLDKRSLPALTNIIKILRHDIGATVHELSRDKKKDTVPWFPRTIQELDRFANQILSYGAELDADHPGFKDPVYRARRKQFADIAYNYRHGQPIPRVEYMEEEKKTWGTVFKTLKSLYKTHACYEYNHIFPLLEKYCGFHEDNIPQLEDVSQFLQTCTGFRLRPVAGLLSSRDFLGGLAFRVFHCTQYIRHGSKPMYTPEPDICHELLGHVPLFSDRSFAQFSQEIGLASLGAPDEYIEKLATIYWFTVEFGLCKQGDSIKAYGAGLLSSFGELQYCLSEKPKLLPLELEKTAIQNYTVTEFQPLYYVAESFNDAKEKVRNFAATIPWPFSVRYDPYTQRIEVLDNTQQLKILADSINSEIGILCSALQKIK
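Note: after compound treatment, cells received sepiapterin plus isotope-labelled Phenylalanine for 4 hours, then labelled Tyrosine in the medium was quantified, 10-point 2-fold dilution series run in duplicate.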

Compound | AC50 [nM]
Cc1nn(C)cc1-c1nnc(C(=O)N2CCc3[nH]cnc3[C@@H]2c2cc3c(F)cccn3n2)o1 [Example 847, (R)-(5-(1,3-dimethyl-1H-pyrazol-4-yl)-1,3,4-oxadiazol-2-yl)(4-(4-fluoropyrazolo[1,5-a]pyridin-2-yl)-6,7-dihydro-1H-imidazo[4,5-c]pyridin-5(4H)-yl)methanone] | > 5000
Cc1cccn2nc([C@@H]3c4nc[nH]c4CCN3C(=O)c3nnc(-c4ccncc4)o3)cc12 [Example 850, (S)-(4-(4-methylpyrazolo[1,5-a]pyridin-2-yl)-6,7-dihydro-1H-imidazo[4,5-c]pyridin-5(4H)-yl)(5-(pyridin-4-yl)-1,3,4-oxadiazol-2-yl)methanone] | < 500
Cc1cccn2nc([C@H]3c4nc[nH]c4CCN3C(=O)c3nnc(-c4ccncc4)o3)cc12 [Example 851, (R)-(4-(4-methylpyrazolo[1,5-a]pyridin-2-yl)-6,7-dihydro-1H-imidazo[4,5-c]pyridin-5(4H)-yl)(5-(pyridin-4-yl)-1,3,4-oxadiazol-2-yl)methanone] | > 5000
Cc1cccn2nc([C@@H]3c4nc[nH]c4CCN3C(=O)c3nnc(-c4cnn(S(=O)(=O)C5CC5)c4)o3)cc12 [Example 852, (S)-(5-(1-(cyclopropylsulfonyl)-1H-pyrazol-4-yl)-1,3,4-oxadiazol-2-yl)(4-(4-methylpyrazolo[1,5-a]pyridin-2-yl)-6,7-dihydro-1H-imidazo[4,5-c]pyridin-5(4H)-yl)methanone] | 500 to 1000
Cc1cccn2nc([C@@H]3c4nc[nH]c4CCN3C(=O)c3nnc(-c4cc(C)n(C)n4)o3)cc12 [Example 854, (S)-(5-(1,5-dimethyl-1H-pyrazol-3-yl)-1,3,4-oxadiazol-2-yl)(4-(4-methylpyrazolo[1,5-a]pyridin-2-yl)-6,7-dihydro-1H-imidazo[4,5-c]pyridin-5(4H)-yl)methanone] | < 500
Cc1cccn2nc([C@H]3c4nc[nH]c4CCN3C(=O)c3nnc(-c4cc(C)n(C)n4)o3)cc12 [Example 855, (R)-(5-(1,5-dimethyl-1H-pyrazol-3-yl)-1,3,4-oxadiazol-2-yl)(4-(4-methylpyrazolo[1,5-a]pyridin-2-yl)-6,7-dihydro-1H-imidazo[4,5-c]pyridin-5(4H)-yl)methanone] | > 5000

Continued, values first:

AC50 [nM] | Compound
< 500 | CC(C)n1nccc1C(=O)N1CCc2[nH]cnc2[C@H]1c1cc2ccccn2n1 [Example 856, (S)-(1-isopropyl-1H-pyrazol-5-yl)(4-(pyrazolo[1,5-a]pyridin-2-yl)-6,7-dihydro-1H-imidazo[4,5-c]pyridin-5(4H)-yl)methanone]
< 500 | CC(C)n1nccc1C(=O)N1CCc2[nH]cnc2[C@H]1c1cc2c(F)cccn2n1 [Example 858, (S)-(4-(4-fluoropyrazolo[1,5-a]pyridin-2-yl)-6,7-dihydro-1H-imidazo[4,5-c]pyridin-5(4H)-yl)(1-isopropyl-1H-pyrazol-5-yl)methanone]
< 500 | Cc1cccn2nc([C@@H]3c4nc[nH]c4CCN3C(=O)c3ccnn3C3CC3)cc12 [Example 860, (S)-(1-cyclopropyl-1H-pyrazol-5-yl)(4-(4-methylpyrazolo[1,5-a]pyridin-2-yl)-6,7-dihydro-1H-imidazo[4,5-c]pyridin-5(4H)-yl)methanone]
< 500 | Cc1cccn2nc([C@@H]3c4nc[nH]c4CCN3C(=O)c3ccnn3-c3ccccn3)cc12 [Example 862, (S)-(4-(4-methylpyrazolo[1,5-a]pyridin-2-yl)-6,7-dihydro-1H-imidazo[4,5-c]pyridin-5(4H)-yl)(1-(pyridin-2-yl)-1H-pyrazol-5-yl)methanone]
< 500 | Cn1nc(C(F)F)cc1C(=O)N1CCc2[nH]cnc2[C@H]1c1cc2c(F)cccn2n1 [Example 864, (S)-(3-(difluoromethyl)-1-methyl-1H-pyrazol-5-yl)(4-(4-fluoropyrazolo[1,5-a]pyridin-2-yl)-6,7-dihydro-1H-imidazo[4,5-c]pyridin-5(4H)-yl)methanone]
